Experimental data reported in patent US11319322B2, “Substituted aryl ether compound, preparation method thereof, pharmaceutical composition and use thereof” (Xiamen University, priority 2017, dated 2022).

Assays:
CCDC6-RET-BaF3 = biological target: T1, CCDC6-RET-BaF3 (Homo sapiens, UniProt P07949); assay: Growth inhibition of CCDC6-RET-BaF3 cells stably transfected with kinase (MTS); type: cell-based; settings: 48 h, read-out: CCDC6-RET (IC50/nM)
T1 construct: fused on or other part: Q16204 (Coiled-coil domain-containing protein 6)
T1 sequence (P07949 whole entry, change not shown, the tested form may be a part): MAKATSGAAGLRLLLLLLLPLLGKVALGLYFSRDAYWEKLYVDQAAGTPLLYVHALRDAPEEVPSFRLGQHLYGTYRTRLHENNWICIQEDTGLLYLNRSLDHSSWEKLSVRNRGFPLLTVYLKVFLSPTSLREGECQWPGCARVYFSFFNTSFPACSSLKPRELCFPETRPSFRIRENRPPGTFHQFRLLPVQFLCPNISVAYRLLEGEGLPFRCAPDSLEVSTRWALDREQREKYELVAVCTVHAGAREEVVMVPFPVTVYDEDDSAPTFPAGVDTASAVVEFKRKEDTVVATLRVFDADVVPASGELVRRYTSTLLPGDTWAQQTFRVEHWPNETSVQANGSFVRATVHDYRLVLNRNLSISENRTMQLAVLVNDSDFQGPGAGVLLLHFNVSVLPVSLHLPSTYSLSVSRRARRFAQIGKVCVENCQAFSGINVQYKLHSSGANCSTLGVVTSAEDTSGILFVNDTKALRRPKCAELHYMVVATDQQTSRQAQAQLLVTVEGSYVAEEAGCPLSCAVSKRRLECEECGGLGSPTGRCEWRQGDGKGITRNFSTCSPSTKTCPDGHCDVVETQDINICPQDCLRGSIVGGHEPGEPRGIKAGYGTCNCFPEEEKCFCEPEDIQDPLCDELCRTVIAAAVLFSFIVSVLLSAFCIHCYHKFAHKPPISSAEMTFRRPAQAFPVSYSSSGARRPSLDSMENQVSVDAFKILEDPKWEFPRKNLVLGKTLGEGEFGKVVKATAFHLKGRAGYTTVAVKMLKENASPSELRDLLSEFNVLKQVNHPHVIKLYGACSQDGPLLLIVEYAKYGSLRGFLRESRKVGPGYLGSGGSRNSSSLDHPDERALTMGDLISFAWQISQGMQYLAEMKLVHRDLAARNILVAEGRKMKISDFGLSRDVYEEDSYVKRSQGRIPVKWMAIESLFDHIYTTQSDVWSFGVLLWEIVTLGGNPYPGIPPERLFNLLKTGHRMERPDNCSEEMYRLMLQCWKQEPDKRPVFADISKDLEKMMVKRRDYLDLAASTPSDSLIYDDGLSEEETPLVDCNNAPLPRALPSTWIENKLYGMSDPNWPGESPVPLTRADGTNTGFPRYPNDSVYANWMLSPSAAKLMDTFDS
Experimental: (§1) Growth inhibitory activity of compounds on cell lines stably transfected with kinase
(§2) The activity of compounds against kinase RET is evaluated by their effect of inhibiting growth of cell lines stably transfected with kinase CCDC6-RET-BaF3, KIF5B-RET-BaF3, and wild-type BaF3 (Proc. Natl. Acad. Sci. USA., 2006, 103, 3153-8.). The growth of the cell lines stably transfected with kinase CCDC6-RET-BaF3, KIF5B-RET-BaF3 depends on their kinase activity. If a compound can inhibit the activity of the kinase RET per se or the activity of the RET signaling pathway, the compound can inhibit the growth of BaF3 cells stably transfected with kinase. […] Therefore, a larger ratio between IC50 of a compound to wild-type BaF3 and IC50 of the compound to the cell lines stably transfected with kinase CCDC6-RET-BaF3, KIF5B-RET-BaF3 indicates better targeting.
(§3) The specific test method is given as follows:
(§4) 1) Medium: DMEM (Dulbecco's modified eagle medium) or RPMI 1640 (containing 10% fetal bovine serum, 100 μg/mL ampicillin, 100 μg/mL streptomycin).
(§5) 2) Reagents: MTS reaction solution (containing 2 mg/mL of MTS [3-(4,5-dimethylthiazol-2-yl)-5-(3-carboxymethoxyphenyl)-2-(4-sulfophenyl)-2H-tetrazolium, inner Salt]; 100 μg/mL PES (phenazine […])).
(§6) 3) Compound test: cells stably transfected with kinase (CCDC6-RET-BaF3, KIF5B-RET-BaF3) or wild-type BaF3 cells (2×10^4 cells/well) were incubated into a 96-well culture plate, the volume of cell culture fluid was 90 μL, and then 10 μL of the compound at each gradient concentration was added (the highest concentration was 10 μM, which was diluted stepwise by ⅓, and 8 concentration points were set in total; the system contained 0.1% DMSO (dimethyl sulfoxide)). The cell plate with uniformly mixed compound was cultured in a cell culture incubator (37° C.; 5% CO2) for 48 h, then 20 μL of MTS reaction solution was added, uniformly mixed and incubated in the cell culture incubator (37° C.; 5% CO2) for 1-4 hr, OD values at 490 nm were measured by a microplate reader (VARIOSKAN FLASH, Thermo). Three parallels were set in each group of experiments, with 0.1% (a final concentration) DMSO as a negative control, and a medium without cells or compounds as a blank control. The cell growth inhibition rate was calculated by the following formula: Cell growth inhibition rate %=1−(ODexperimental group−ODblank group)/(ODnegative group−ODblank group)×100%
(§7) 4) IC50 calculation: The semi-inhibitory concentration of the compound acting on cell growth was calculated using GradPad Prism 5 software according to the measured cell growth inhibition rate.

KIF5B-RET-BaF3 = biological target: T2, KIF5B-RET-BaF3 (Homo sapiens, UniProt P07949); assay: Growth inhibition of KIF5B-RET-BaF3 cells stably transfected with kinase (MTS); type: cell-based; settings: 48 h, read-out: KIF5B-RET (IC50/nM)
T2 construct: fused on or other part: P33176 (Kinesin-1 heavy chain)
T2 sequence (P07949 whole entry, change not shown, the tested form may be a part): as above
Experimental: as §1, §2, §3, §4, §5, §6, §7

| GI50 (CCDC6-RET-BaF3) [nM] | GI50 (KIF5B-RET-BaF3) [nM] | SMILES |
| --- | --- | --- |
| 4110 | 2850 | Cc1ccc(NC(=O)c2ccc(CN3CCN(C)CC3)c(C(F)(F)F)c2)cc1Oc1nc(-c2cccnc2)nc2cc[nH]c12 [III-i-1] |
| 1400 | 774 | Cc1ccc(NC(=O)c2ccc(CN3CCN(C)CC3)c(C(F)(F)F)c2)cc1Oc1nc(-c2ccncc2)nc2cc[nH]c12 [III-i-2] |
| 4340 | 3630 | Cc1ccc(NC(=O)c2ccc(CN3CCN(C)CC3)c(C(F)(F)F)c2)cc1Oc1nc(-c2cccnc2)nc2ccn(C)c12 [III-i-3] |
| 2020 | 1330 | Cc1ccc(NC(=O)c2ccc(CN3CCN(C)CC3)c(C(F)(F)F)c2)cc1Oc1nc(-c2ccncc2)nc2ccn(C)c12 [III-i-4] |
| 5940 | 3250 | Cc1ccc(Oc2nc(-c3cccnc3)nc3cc[nH]c23)cc1NC(=O)c1ccc(CN2CCN(C)CC2)c(C(F)(F)F)c1 [III-j-1] |
| 6.06 | 2.32 | Cc1ccc(Oc2nc(-c3ccncc3)nc3cc[nH]c23)cc1NC(=O)c1ccc(CN2CCN(C)CC2)c(C(F)(F)F)c1 [III-j-2] |
| 4260 | 3100 | Cc1ccc(Oc2nc(-c3cccnc3)nc3ccn(C)c23)cc1NC(=O)c1ccc(CN2CCN(C)CC2)c(C(F)(F)F)c1 [III-j-5] |
| 28 | 13.2 | Cc1ccc(Oc2nc(-c3ccncc3)nc3ccn(C)c23)cc1NC(=O)c1ccc(CN2CCN(C)CC2)c(C(F)(F)F)c1 [III-j-6] |
| 2200 | 2380 | Cc1ccc(-c2nc(Oc3ccc(Cl)c(NC(=O)c4ccc(CN5CCN(C)CC5)c(C(F)(F)F)c4)c3)c3[nH]ccc3n2)cc1 [III-k-15] |
| 22.7 | 5.71 | CN1CCN(Cc2ccc(NC(=O)c3cccc(Oc4nc(-c5ccncc5)nc5cc[nH]c45)c3)cc2C(F)(F)F)CC1 [III-l-2] |
| 1400 | 1540 | CN1CCN(Cc2ccc(NC(=O)c3cccc(Oc4nc(-c5cccnc5)nc5ccn(C)c45)c3)cc2C(F)(F)F)CC1 [III-l-3] |
| 18.7 | 11.3 | CN1CCN(Cc2ccc(NC(=O)c3cccc(Oc4nc(-c5ccncc5)nc5ccn(C)c45)c3)cc2C(F)(F)F)CC1 [III-l-4] |
| 4500 | 2100 | Cc1ccc(C(=O)Nc2ccc(CN3CCN(C)CC3)c(C(F)(F)F)c2)cc1Oc1nc(-c2cccnc2)nc2cc[nH]c12 [III-m-1] |
| 3630 | 1310 | Cc1ccc(C(=O)Nc2ccc(CN3CCN(C)CC3)c(C(F)(F)F)c2)cc1Oc1nc(-c2ccncc2)nc2cc[nH]c12 [III-m-2] |
| 3150 | 2760 | Cc1ccc(C(=O)Nc2ccc(CN3CCN(C)CC3)c(C(F)(F)F)c2)cc1Oc1nc(-c2ccoc2)nc2ccn(C)c12 [III-m-17] |
| 53.7 | 21 | Cc1ccc(Oc2nc(-c3ccncc3)nc3cc[nH]c23)cc1C(=O)Nc1ccc(CN2CCN(C)CC2)c(C(F)(F)F)c1 [III-n-2] |
| 43.1 | 17.2 | Cc1ccc(Oc2nc(-c3ccncc3)nc3ccn(C)c23)cc1C(=O)Nc1ccc(CN2CCN(C)CC2)c(C(F)(F)F)c1 [III-n-4] |
| 4530 | 3380 | CN1CCN(Cc2cc(NC(=O)c3cccc(Oc4nc(-c5cccnc5)nc5ccn(C)c45)c3)cc(C(F)(F)F)c2)CC1 [III-p-3] |
| 4450 | 4770 | Cc1ccc(Oc2nc(-c3cccnc3)nc3cc[nH]c23)cc1C(=O)Nc1cc(CN2CCN(C)CC2)cc(C(F)(F)F)c1 [III-r-1] |
| 10900 | 4340 | CCC(=O)NC1CCN(c2ccc(NC(=O)c3ccc(C)c(Oc4nc(-c5ccncc5)nc5ccn(C)c45)c3)cc2C(F)(F)F)CC1 [III-v-8] |
| 4210 | 1750 | CC(=O)NC1CCN(c2ccc(NC(=O)c3ccc(C)c(Oc4nc(-c5ccncc5)nc5ccn(C)c45)c3)cc2C(F)(F)F)CC1 [III-v-9] |
| 3330 | 1460 | CCS(=O)(=O)NC1CCN(c2ccc(NC(=O)c3ccc(C)c(Oc4nc(-c5ccncc5)nc5ccn(C)c45)c3)cc2C(F)(F)F)CC1 [III-v-11] |
